Results published in US20090054435A1, “Phenoxyalkanoic Acid Compound” (priority 2005, published 2009).

Legend:
[1] = biological target: T1, PPAR γ-RXRα heterodimer (Homo sapiens, UniProt P37231); experiment: PPAR γ-RXRα heterodimer ligand activity (luciferase reporter in PPAR γ:RXRα:4ERPP/CHO-K1 cells); assay type: cell-based; conditions: for EC50: compound concentration showing 50% of the maximum induction rate of luciferase activity, 18-24 hr incubation; for Vmax (%): maximum luciferase induction relative to 5-{4-[2-(5-methyl-2-phenyl-1,3-oxazol-4-yl)ethoxy]benzyl}-1,3-thiazolidin-2,4-dione (PPARγ full agonist) as 100%
T1 construct: expressed in transfected cells; host or cells: CHO-K1 (PPAR γ:RXRα:4ERPP/CHO-K1)
T1 sequence (P37231 29-505 limits assumed): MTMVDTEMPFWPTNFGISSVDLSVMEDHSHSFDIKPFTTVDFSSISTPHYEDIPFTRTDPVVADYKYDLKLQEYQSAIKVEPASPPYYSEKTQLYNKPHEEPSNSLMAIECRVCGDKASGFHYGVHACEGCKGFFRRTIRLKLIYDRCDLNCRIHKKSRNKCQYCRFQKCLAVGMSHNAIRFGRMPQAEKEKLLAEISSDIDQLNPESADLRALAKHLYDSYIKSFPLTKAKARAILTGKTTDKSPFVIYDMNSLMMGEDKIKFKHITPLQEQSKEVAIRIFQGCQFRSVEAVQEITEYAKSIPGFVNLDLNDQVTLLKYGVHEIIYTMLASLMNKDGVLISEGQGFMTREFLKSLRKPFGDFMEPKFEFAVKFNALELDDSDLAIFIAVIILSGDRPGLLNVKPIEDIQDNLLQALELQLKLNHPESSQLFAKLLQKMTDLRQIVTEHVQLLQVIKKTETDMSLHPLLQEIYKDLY
T1 sequence (P19793 1-462 partner): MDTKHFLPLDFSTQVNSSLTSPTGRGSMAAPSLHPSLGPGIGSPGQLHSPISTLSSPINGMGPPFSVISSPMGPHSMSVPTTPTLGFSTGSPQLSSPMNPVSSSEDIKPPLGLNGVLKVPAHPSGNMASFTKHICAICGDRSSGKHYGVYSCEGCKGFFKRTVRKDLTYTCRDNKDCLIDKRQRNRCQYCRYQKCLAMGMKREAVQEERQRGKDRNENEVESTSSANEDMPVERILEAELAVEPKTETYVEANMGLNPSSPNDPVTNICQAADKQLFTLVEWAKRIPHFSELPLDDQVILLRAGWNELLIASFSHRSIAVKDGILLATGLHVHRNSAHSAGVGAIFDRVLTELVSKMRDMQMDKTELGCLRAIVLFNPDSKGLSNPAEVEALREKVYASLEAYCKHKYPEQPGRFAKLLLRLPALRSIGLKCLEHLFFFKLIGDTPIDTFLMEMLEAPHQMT
Protocol: The PPAR γ:RXRα:4ERPP/CHO-K1 cells described in WO03/099793 were cultured in a HamF12 medium [manufactured by Life Technologies, Inc., US] containing 10% calf fetal serum [manufactured by Life Technologies, Inc., US], sown in a 96-well white plate [manufactured by Corning Coster Corporation, US] at 2×10^4 cells/well, and incubated overnight in a carbon dioxide gas incubator at 37° C.
Then, the medium was removed from the 96 well white plate, 80 μl of HamF12 medium containing 0.1% fatty acid-free bovine serum albumin (BSA) and a test compound (20 μl) were added, and the cells were incubated for 18-24 hr in a carbon dioxide gas incubator at 37° C. The medium was removed, 40 μl of PicaGene7.5 (manufactured by Wako Pure Chemical Industries, Ltd.) 2-fold diluted with HBSS (HANKS' BALANCED SALT SOLUTION) [manufactured by BIO WHITTAKER, US] was added. After stirring, the luciferase activity was determined using the 1420 ARVO Multilabel Counter [manufactured by PerkinElmer, US].
The induction rate was calculated from the luciferase activity of each test compound based on the luciferase activity of the test compound non-administration group as 1. The test compound concentration and the induction rate were analyzed by PRISM [manufactured by GraphPad Software, Inc., US] to calculate EC50 value (compound concentration showing 50% of the maximum value of induction rate) of the test compound.
In addition, the luciferase activity induction magnification maximum value of each test compound relative to that of the 5-{4-[2-(5-methyl-2-phenyl-1,3-oxazol-4-yl)ethoxy]benzyl}-1,3-thiazolidin-2,4-dione (PPARγ full agonist) administration group as 100% was defined as Vmax and calculated.

[2] = tested on: KKAy mice; experiment: Blood glucose and blood lipid (triglyceride) lowering action in mice; assay type: in vivo; conditions: 6 days; for hypoglycemic action (%): decrease rate of blood glucose vs non-administration group (100%); for hypolipidemic action (%): decrease rate of blood triglyceride vs non-administration group (100%)
Description: The test compound was mixed with a powder diet (CE-2, CLEA JAPAN, INC.) at a proportion of 0.01% (0.03% for the compound of Example 1) and freely given to KKAy mice (9 to 12-week-old, 5 mice per group) which are obese non-insulin-dependent diabetes (type-2 diabetes) models, for 6 days. During this period, water was freely given to the mice. The blood was drawn from the orbital venous plexus. Glucose and triglyceride in the plasma separated from the blood were quantitated using L Type Wako Glu2 (Wako Pure Chemical Industries, Ltd.) and L Type Wako TG·H (Wako Pure Chemical Industries, Ltd.), respectively, according to an enzyme method.

[3] = 0.03% in powder diet (compound of Example 1)

| EC50 [1] | Vmax (%) [1] | melting point | SMILES | hypoglycemic action (%) [2, 3] | hypolipidemic action (%) [2, 3] | hypoglycemic action (%) ([2]; 0.01% in powder diet) | hypolipidemic action (%) ([2]; 0.01% in powder diet) |
| --- | --- | --- | --- | --- | --- | --- | --- |
| 100 nM | 57% | 146 to 147 °C | COc1ccc(C(=O)c2ccc(OCc3nc(-c4ccccc4)oc3C)cc2)c(OCC(=O)O)c1 [Example 1, (5-methoxy-2-{4-[(5-methyl-2-phenyl-1,3-oxazol-4-yl)methoxy]benzoyl}phenoxy)acetic acid] | 54% | 44% |  |  |
| 15 nM | 61% | 175 to 177 °C | COc1ccc(C(=O)c2ccc(OCc3nc(-c4ccccc4)oc3C)cc2)c(OC(C)(C)C(=O)O)c1 [Example 14, 2-(5-methoxy-2-{4-[(5-methyl-2-phenyl-1,3-oxazol-4-yl)methoxy]benzoyl}phenoxy)-2-methylpropanoic acid] |  |  | 38% | 29% |
| 8.1 nM | 60% | 162 to 163 °C | COc1ccc(C(=O)c2ccc(OCc3nc(-c4ccccc4)oc3C)nc2)c(OC(C)C(=O)O)c1 (stereo not drawn) [Example 21, 2-[5-methoxy-2-({6-[(5-methyl-2-phenyl-1,3-oxazol-4-yl)methoxy]pyridin-3-yl}carbonyl)phenoxy]propanoic acid] |  |  | 32% | 14% |
| 33 nM | 70% | 186 to 187 °C | Cc1oc(-c2ccccc2)nc1COc1ccc(C(=O)c2ccccc2OC(C)C(=O)O)cc1 (stereo not drawn) [Example 22, 2-(2-{4-[(5-methyl-2-phenyl-1,3-oxazol-4-yl)methoxy]benzoyl}phenoxy)propanoic acid] |  |  | 41% | 48% |
| 1 nM | 73% | 122 to 123 °C | COc1cc(C)c(C(=O)c2ccc(OCc3nc(-c4ccccc4)oc3C)cc2)c(O[C@H](C)C(=O)O)c1 [Example 42, (2R)-2-(5-methoxy-3-methyl-2-{4-[(5-methyl-2-phenyl-1,3-oxazol-4-yl)methoxy]benzoyl}phenoxy)propanoic acid] |  |  |  |  |
| 5.1 nM | 60% | 169 to 170 °C | COc1ccc(C(=O)c2ccc(OCc3nc(-c4ccccc4)oc3C)cc2)c(O[C@H](C)C(=O)O)c1 [Example 53, (2R)-2-(5-methoxy-2-{4-[(5-methyl-2-phenyl-1,3-oxazol-4-yl)methoxy]benzoyl}phenoxy)propanoic acid] |  |  | 46% | 12% |
| 15 nM | 44% |  | COc1ccc(C(=O)c2ccc(OCCc3nc(-c4ccccc4)oc3C)nc2)c(O[C@H](C)C(=O)O)c1 [Example 55, (2R)-2-[5-methoxy-2-({6-[2-(5-methyl-2-phenyl-1,3-oxazol-4-yl)ethoxy]pyridin-3-yl}carbonyl)phenoxy]propanoic acid] |  |  |  |  |
